Data taken from patent US20100240887A1, “New methods of producing HHT” (priority 2009, published 2010).
Like-named read-outs stand apart in the source and are kept apart here.

How the values were obtained:
HL-60 cells = assay: Cellular diversion of human leukemic cells (NBT); assay type: cell-based; settings: human leukemic cells (HL-60); index of normal cells
gastric cancer cells = assay: Cellular diversion of gastric cancer cells (NBT); assay type: cell-based
Normal cells = assay: Apoptosis of normal cells; assay type: cell-based; settings: 50 ng/ml (Table 4)
Procedure: (§1) Cells ([…] were incubated in 10 ml IMDM plus […] heat-inactivated fetal calf serum. Samples were incubated for 24 hours with various concentrations of drugs. Control samples received the same amount of media, without drug addition. After 24 hours of incubation the samples were pelleted and fixed in ethanol […] for 15 minutes at 4° C.; after three washes in PBS, the cells were treated with RNase I 0.5 mg/ml for 15 minutes at 37° C. The cells were harvested by centrifugation and resuspended in 50 μg/ml propidium iodide in PBS. Analysis (upon acquisition of 10,000-20,000 events) was performed on a FACscan flow cytometer with the FL2 detector in logarithmic mode, using Lysis II software (Becton Dickinson). […]
(§2) For evaluation of apoptosis by flow cytometry, cells were fixed and permeabilized in 1% paraformaldehyde and ice-cold 70% ethanol. […] Green (apoptotic cells) and orange (total DNA) fluorescence were measured with a FACScan flow cytometer and analyzed with LYSIS II and CELLFIT programs. Data were analyzed by Student's t-test. […]
(§3) Untreated and treated HL-60 cells collected by centrifugation, washed in phosphate buffered saline and re-suspended at a concentration of 5×10^6 cells and 0.1% RNase A. The mixture was incubated at 37° C. for 30 min and then incubated for an additional 30 min at 37° C. […] DNA was precipitated with 0.5 N perchloric acid and quantitated using diphenylamine reagent. […]

Malignant melanoma cells = assay: Apoptosis of malignant melanoma cells; assay type: cell-based; settings: 50 ng/ml
Procedure: as §1, §2, §3

Leukemic cells = assay: Inhibition of tumor cell proliferation, leukemic cells; assay type: cell-based, human; settings: 1 μg/ml, 72 hours
Procedure: (§4) Human tumor cell lines: Hela leukemia HL-60, malignant melanocarcinoma B16, oral epidermoid carcinoma (KB), lung carcinoma (A549), breast carcinoma MCF-7, adenocarcinoma of stomach.
(§5) Animal tumor cell lines: Walker carcinoma, LLC-WRC-256, malignant melanoma (RMMI 1846), 3T3, and S-180 sarcoma (CCRF-180). All lines were routinely cultured in the RPMI1640 medium supplemented 20% fetal calf serum. The experiment was carried out in 96 microplate, each well had 5×10^5 cells and given desired concentration of 1 μg/ml (1×10^−6 g/ml) drug. Then the plate was incubated at […] in an atmosphere of humidified air enriched with 5 percent carbon dioxide for 72 hours.
(§6) Inhibition percent rate of tumor cell proliferation was obtained according to the bellow formula.

[1] = tested on: Malignant melanoma of the pigmented layers of eyes; assay: Inhibition of tumor cell proliferation, malignant melanoma of eyes; assay type: cell-based; settings: 1 μg/ml, 72 hours
Procedure: as §4, §5, §6

L615 transplanted tumor = assay: Growth of transplanted tumor in mice; assay type: in vivo; settings: intraperitoneally, 20 mg/kg, sacrificed on the 12th day
Procedure: Male mice, weight 20-22 g, were used in the experiment. 1×10^7 tumor cells were injected to mouse and other drugs injected intraperitoneally began second day. All mice were sacrificed on the 12th day, isolated the tumor and weighed and calculated the inhibition rate of tumor weight.
The effect of HHT on the growth of animal transplanted tumor as illustrated by the Table 6.20 mg/kg of other drugs could inhibit the growth of L615 transplanted tumor.

tyrosine kinase (TK) = assay: Tyrosine kinase (TK) assay in HL-60 leukemia cells; assay type: cell-based, human; settings: for % of control activity (TK): Table 8, concentration not given
Procedure: Tyrosine kinase (TK) Assay: TK was measured by a modification of the method of Braun et al. Briefly, H-60 leukemia cells were plated at a density of 5×10^5 cells in […], and divided control and treatments groups for incubation 24 hours at 37° C. with 5% CO2. The cells were collected by scraping, washed twice with phosphate-buffered saline, and resuspended at density of 10^6 cells/ml in 5 mM HEPEs buffer (pH 7.4). The cells were then resuspended in 1 ml of buffer containing 5 mM HEPES (pH 7.6), 1 mM MgCl2 and 1 mM EDTA, then placed on ice bath. The cell membrane was disrupted by ultra sound and centrifuged at 1,000×g for 10 minutes. The supernatant was ultra centrifuged at 30,000×g for 30 minutes at 4° C. The pellet was resuspended in 0.3 ml of buffer containing 25 mM HEOES, centrifuged at 12,000×g for 5 minutes. The resulting supernatant was used for TK assay. Content of protein was determined. 10 μg of protein placed in 20 mM HEPES (pH 7.6), 15 mM MgCl2, 10 mM ZnCl2 and 5% (v/v) nonidet P-40, with or without substrate [glutamic acid (GT), mg/ml]. After 5 minutes incubation at 25° C., the reaction was initiated by the addition of 25 μM [γ^32P] ATP (3 ci/mmol). After 10 minutes, the reaction was stopped by the addition of 20 mM cold ATP. 50 μl of the mixtures were spotted on glass microfiber filter discs and washed three times with cold trichloroacetic acid (TCA), contained 10 mM sodium pyrophosphate. Air dried. Radioactivity was determined by liquid scintillation spectrometry. The net TK activity was determined after correcting for endogenous TK activity.

[2] = tested on: NNK-induced pulmonary adenomas; assay: NNK-induced lung tumorigenesis; assay type: in vivo; settings: mice, 20 mg/kg daily by injection, NNK 10 μmol i.p., sixteen weeks
Procedure: Every group had 20 mice. […] For control group, each mouse was gave same volume of physiological saline. Three days later, mice were gave 10 μmol NNK (in 0.1 ml saline) by i.p. injection. Sixteen weeks after these treatments the mice were killed and pulmonary adenomas were counted. The statistical significance of bioassay data was determined by student's test.

mice = assay: LD50 in mice; assay type: in vivo; settings: injection in abdominal cavity in mice
From the text: (§7) • 1. […] LD50 of HHT is much higher than majority anticancer drugs. The toxicology data of HHT mean that HHT is safe drug for treatment of cancer cells.

LD50 in mice = assay type: in vivo; settings: mouse, in vivo, intraperitoneal; injection in abdominal cavity in mice
From the text: as §7

dogs [3] = settings: dog, in vivo
Procedure: (§8) Forty dogs were used. Body weight, food consumption, general observations, laboratory tests, and postmortem examinations were determined.
(§9) Twenty normal adult dogs had weight approximately 10 kg±1 kg used in experiments. Toxic doses for dogs: 0.15 mg/kg/days×7 and 0.30 mg/kg/days×7 of HHT was injected as the toxic doses.
(§10) For HHT treatment group, at least eight dogs that died early in the observation period and eight dogs that died late were examined.

dogs [4] = assay: Short-term toxicity in dogs
Procedure: as §8, §9, §10

COC(=O)C[C@](O)(CCCC(C)(C)O)C(=O)O[C@@H]1C(OC)=C[C@]23CCCN2CCc2cc4c(cc2[C@H]13)OCO4 [C-HHT]
NBT (%) (HL-60 cells): 64 ± 8.0 %
NBT (%) (gastric cancer cells): 57 ± 8.9 %
Apoptosis (%) (Normal cells): 19.2 ± 2.5 %
Apoptosis (%) (Malignant melanoma cells): 43.8 ± 4.2 %
Inhibition (%) (Leukemic cells): 74.1 ± 10.8%
Inhibition (%) [1]: 83.1 ± 9.8%
Inhibition (%) of transplanted tumor (tumor weight) (L615 transplanted tumor): 67.8 ± 6.0%
% of control activity (TK) (tyrosine kinase (TK)): 20.0 ± 5.0%
Tumor incidence (%) [2]: 21.7 ± 4.8 %
LD50 (mice): 4.0 mg/kg

COC(=O)C[C@](O)(CCCC(C)(C)O)C(=O)O[C@@H]1C(OC)=C[C@]23CCCN2CCc2cc4c(cc2[C@H]13)OCO4 [HHT, Homoharringtonine]
inhibition at 1 µg/mL [1]: 80 ± 9.2%
inhibition of TK activity (tyrosine kinase (TK); 10^−6 M): 99.9%
LD50 (LD50 in mice): 4.07 mg/kg
delayed toxicity (dogs [3]): No significant delayed toxicity
major target organs involved in toxicity (dogs [3]): G.I. tract, heart and hematopoietic organs
Heart rate (dogs [3]; 0.1 mg/kg/day): 205 beat/min
Leukocyte count (dogs [3]; 0.1 mg/kg/day): 3.90 ×10^3/mm^3
Heart rate (dogs [3]; 0.2 mg/kg/day): 230 beat/min
Leukocyte count (dogs [3]; 0.2 mg/kg/day): 3.58 ×10^3/mm^3
Heart rate (dogs [3]; 0.3 mg/kg/day): 259 beat/min
Leukocyte count (dogs [3]; 0.3 mg/kg/day): 3.20 ×10^3/mm^3
Heart rate (dogs [4]; 0.1 mg/kg/d × 7, ♀): 208 beat/min
Leukocyte count (dogs [4]; 0.1 mg/kg/d × 7, ♀): 3.91 ×10^3/mm^3
Heart rate (dogs [4]; 0.2 mg/kg/d × 7, ♀): 232 beat/min
Leukocyte count (dogs [4]; 0.2 mg/kg/d × 7, ♀): 3.65 ×10^3/mm^3
Heart rate (dogs [4]; 0.3 mg/kg/d × 7, ♀): 260 beat/min
Leukocyte count (dogs [4]; 0.3 mg/kg/d × 7, ♀): 3.25 ×10^3/mm^3

COC(=O)C[C@](O)(CCCC(C)(C)O)C(=O)O[C@@H]1C(OC)=C[C@]23CCCN2CCc2cc4c(cc2[C@H]13)OCO4 [S-HHT]
NBT (%) (HL-60 cells): 63 ± 7.8 %
Apoptosis (%) (Normal cells): 18.0 ± 2.0 %
Apoptosis (%) (Malignant melanoma cells): 43.0 ± 6.0 %
Inhibition (%) (Leukemic cells): 72.5 ± 11.6%
Inhibition (%) [1]: 82.5 ± 10.2%
Inhibition (%) of transplanted tumor (tumor weight) (L615 transplanted tumor): 69.2 ± 7.0 %
% of control activity (TK) (tyrosine kinase (TK)): 20.8 ± 4.8 %
Tumor incidence (%) [2]: 26.5 ± 4.9 %
LD50 (mice): 4.20 mg/kg
